According to US9458137B2, “Substituted indol-5-ol derivatives and their therapeutical applications” (NantBioScience, Inc., priority 2012, dated 2016):

What was measured:
Assay in all cases: Kinase panel activity
Assay type in all cases: biochemical
Settings in all cases: 0.1 μM, ATP Km
MKK4(m) = target: T1, MKK4(m) (Mus musculus, UniProt P47809)
T1 construct: purchased Millipore (KinaseProfiler service)
Protocol: (§1) The effect of NTW-3475 on kinase activity was tested for a wide range of kinases and is shown in Table 2: Summary Sheet, Activity % ATP Concentration: Km

CK1γ3(h) = CK1γ3(h) (Homo sapiens, UniProt Q9Y6M4)
Protocol: as §1

CK2α2(h) = CK2α2(h) (Homo sapiens, UniProt P19784)
Protocol: as §1

MEK1(h) = target: T2, MEK1(h) (Homo sapiens, UniProt Q02750)
T2 construct: purchased Millipore (KinaseProfiler service)
Protocol: as §1

Ret(V804M)(h) = target: T3, Ret(V804M)(h) (Homo sapiens, UniProt P07949, V804M)
T3 construct: purchased Millipore (KinaseProfiler service)
T3 sequence (P07949 29-1114 V804M): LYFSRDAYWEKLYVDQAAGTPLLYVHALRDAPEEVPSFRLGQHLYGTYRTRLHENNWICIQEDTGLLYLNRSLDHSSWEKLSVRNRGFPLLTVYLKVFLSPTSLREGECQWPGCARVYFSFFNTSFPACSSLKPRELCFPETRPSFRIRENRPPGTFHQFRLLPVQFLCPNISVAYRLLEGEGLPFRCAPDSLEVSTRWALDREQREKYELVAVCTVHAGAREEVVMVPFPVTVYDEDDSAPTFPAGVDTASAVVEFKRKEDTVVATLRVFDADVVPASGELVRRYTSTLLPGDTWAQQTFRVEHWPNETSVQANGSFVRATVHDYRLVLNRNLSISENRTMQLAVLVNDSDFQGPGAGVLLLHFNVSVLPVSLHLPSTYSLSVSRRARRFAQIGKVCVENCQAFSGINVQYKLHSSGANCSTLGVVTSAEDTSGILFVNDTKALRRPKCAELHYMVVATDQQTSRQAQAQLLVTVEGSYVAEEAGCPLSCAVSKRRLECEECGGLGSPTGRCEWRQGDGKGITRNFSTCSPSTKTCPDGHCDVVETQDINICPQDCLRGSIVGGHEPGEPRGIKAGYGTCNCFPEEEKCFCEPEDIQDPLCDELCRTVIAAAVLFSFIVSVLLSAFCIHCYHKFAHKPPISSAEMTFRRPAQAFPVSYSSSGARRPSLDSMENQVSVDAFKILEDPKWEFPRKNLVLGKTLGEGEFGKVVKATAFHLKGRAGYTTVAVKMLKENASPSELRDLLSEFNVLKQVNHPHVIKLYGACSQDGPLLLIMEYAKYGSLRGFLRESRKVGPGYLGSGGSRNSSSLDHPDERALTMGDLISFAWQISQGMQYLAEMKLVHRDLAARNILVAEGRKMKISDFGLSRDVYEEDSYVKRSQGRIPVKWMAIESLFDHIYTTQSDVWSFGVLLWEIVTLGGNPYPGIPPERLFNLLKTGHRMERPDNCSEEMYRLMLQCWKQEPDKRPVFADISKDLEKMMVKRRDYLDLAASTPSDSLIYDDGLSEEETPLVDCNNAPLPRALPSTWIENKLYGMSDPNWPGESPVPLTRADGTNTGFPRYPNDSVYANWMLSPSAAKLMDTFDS
Protocol: as §1

CHK2(h) = CHK2(h) (Homo sapiens, UniProt O96017)
Protocol: as §1

EphA1(h) = target: T4, EphA1(h) (Homo sapiens, UniProt P21709)
T4 construct: purchased Millipore (KinaseProfiler service)
Protocol: as §1

GCK(h) = GCK(h) (Homo sapiens, UniProt Q12851)
GCK(h), sequence (Q12851 whole entry): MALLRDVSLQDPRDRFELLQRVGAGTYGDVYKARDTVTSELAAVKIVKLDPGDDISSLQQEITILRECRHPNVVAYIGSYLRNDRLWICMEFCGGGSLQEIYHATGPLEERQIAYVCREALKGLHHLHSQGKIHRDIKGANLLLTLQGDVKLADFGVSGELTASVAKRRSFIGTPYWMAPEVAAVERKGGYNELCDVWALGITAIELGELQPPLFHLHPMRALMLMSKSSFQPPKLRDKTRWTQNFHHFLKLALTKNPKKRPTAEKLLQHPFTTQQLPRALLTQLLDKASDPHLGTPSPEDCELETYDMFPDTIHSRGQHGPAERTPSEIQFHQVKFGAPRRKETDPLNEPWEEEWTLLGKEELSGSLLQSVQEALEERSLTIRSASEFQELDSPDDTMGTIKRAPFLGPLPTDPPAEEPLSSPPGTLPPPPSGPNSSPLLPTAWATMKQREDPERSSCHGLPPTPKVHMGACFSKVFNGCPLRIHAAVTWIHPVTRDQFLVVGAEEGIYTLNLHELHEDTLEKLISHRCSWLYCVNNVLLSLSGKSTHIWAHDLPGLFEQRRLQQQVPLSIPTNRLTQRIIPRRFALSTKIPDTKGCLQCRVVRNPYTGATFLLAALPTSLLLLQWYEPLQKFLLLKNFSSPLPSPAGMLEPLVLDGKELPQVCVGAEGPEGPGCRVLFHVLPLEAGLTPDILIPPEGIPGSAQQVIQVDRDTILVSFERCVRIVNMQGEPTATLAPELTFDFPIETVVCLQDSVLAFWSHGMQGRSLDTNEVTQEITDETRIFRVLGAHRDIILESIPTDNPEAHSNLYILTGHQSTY
Protocol: as §1

Fer(h) = target: T5, Fer(h) (Homo sapiens, UniProt P16591)
T5 construct: purchased Millipore (KinaseProfiler service)
Protocol: as §1

ZAP-70(h) = ZAP-70(h) (Homo sapiens, UniProt P43403)
Protocol: as §1

cKit(D816V)(h) = cKit(D816V)(h) (Homo sapiens, UniProt P10721, D816V)
Protocol: as §1

PKCβII(h) = PKCβII(h) (Homo sapiens, UniProt P05771)
Protocol: as §1

TAK1(h) = target: T6, TAK1(h) (Homo sapiens, UniProt O43318)
T6 construct: purchased Millipore (KinaseProfiler service)
Protocol: as §1

Pim-3(h) = Pim-3(h) (Homo sapiens, UniProt Q86V86)
Protocol: as §1

ROCK-II(h) = target: T7, ROCK-II(h) (Homo sapiens, UniProt O75116)
T7 construct: purchased Millipore (KinaseProfiler service)
Protocol: as §1

MSK1(h) = target: T8, MSK1(h) (Homo sapiens, UniProt O75582)
T8 construct: purchased Millipore (KinaseProfiler service)
Protocol: as §1

SGK3(h) = target: T9, SGK3(h) (Homo sapiens, UniProt Q96BR1)
T9 construct: purchased Millipore (KinaseProfiler service)
Protocol: as §1

SAPK3(h) = target: T10, SAPK3(h) (Homo sapiens, UniProt P53778)
T10 construct: purchased Millipore (KinaseProfiler service)
T10 sequence (P53778 whole entry): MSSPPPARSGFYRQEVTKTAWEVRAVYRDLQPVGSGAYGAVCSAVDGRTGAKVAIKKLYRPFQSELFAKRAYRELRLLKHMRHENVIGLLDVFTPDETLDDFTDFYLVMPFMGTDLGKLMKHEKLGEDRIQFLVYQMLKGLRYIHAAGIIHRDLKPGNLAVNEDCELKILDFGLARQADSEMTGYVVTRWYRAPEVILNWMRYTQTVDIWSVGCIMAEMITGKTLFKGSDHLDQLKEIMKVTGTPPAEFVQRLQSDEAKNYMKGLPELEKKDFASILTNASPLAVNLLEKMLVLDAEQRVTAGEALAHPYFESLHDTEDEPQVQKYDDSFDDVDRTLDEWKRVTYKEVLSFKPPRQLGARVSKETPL
Protocol: as §1

HIPK1(h) = HIPK1(h) (Homo sapiens, UniProt Q86Z02)
Protocol: as §1

PKCγ(h) = PKCγ(h) (Homo sapiens, UniProt P05129)
Protocol: as §1

LOK(h) = LOK(h) (Homo sapiens, UniProt O94804)
Protocol: as §1

FAK(h) = target: T11, FAK(h) (Homo sapiens, UniProt Q05397)
T11 construct: purchased Millipore (KinaseProfiler service)
Protocol: as §1

ACK1(h) = ACK1(h) (Homo sapiens, UniProt Q07912)
Protocol: as §1

BTK(R28H)(h) = BTK(R28H)(h) (Homo sapiens, UniProt Q06187, R28H)
Protocol: as §1

Fms(Y969C)(h) = Fms(Y969C)(h) (Homo sapiens, UniProt P07333, Y969C)
Protocol: as §1

Tie2(Y897S)(h) = target: T12, Tie2(Y897S)(h) (Homo sapiens, UniProt Q02763, Y897S)
T12 construct: purchased Millipore (KinaseProfiler service)
Protocol: as §1

Tec(h) activated = target: T13, Tec(h) activated (Homo sapiens, UniProt P42680)
T13 construct: purchased Millipore (KinaseProfiler service)
Protocol: as §1

ROCK-I(h) = target: T14, ROCK-I(h) (Homo sapiens, UniProt Q13464)
T14 construct: purchased Millipore (KinaseProfiler service)
T14 sequence (Q13464 whole entry): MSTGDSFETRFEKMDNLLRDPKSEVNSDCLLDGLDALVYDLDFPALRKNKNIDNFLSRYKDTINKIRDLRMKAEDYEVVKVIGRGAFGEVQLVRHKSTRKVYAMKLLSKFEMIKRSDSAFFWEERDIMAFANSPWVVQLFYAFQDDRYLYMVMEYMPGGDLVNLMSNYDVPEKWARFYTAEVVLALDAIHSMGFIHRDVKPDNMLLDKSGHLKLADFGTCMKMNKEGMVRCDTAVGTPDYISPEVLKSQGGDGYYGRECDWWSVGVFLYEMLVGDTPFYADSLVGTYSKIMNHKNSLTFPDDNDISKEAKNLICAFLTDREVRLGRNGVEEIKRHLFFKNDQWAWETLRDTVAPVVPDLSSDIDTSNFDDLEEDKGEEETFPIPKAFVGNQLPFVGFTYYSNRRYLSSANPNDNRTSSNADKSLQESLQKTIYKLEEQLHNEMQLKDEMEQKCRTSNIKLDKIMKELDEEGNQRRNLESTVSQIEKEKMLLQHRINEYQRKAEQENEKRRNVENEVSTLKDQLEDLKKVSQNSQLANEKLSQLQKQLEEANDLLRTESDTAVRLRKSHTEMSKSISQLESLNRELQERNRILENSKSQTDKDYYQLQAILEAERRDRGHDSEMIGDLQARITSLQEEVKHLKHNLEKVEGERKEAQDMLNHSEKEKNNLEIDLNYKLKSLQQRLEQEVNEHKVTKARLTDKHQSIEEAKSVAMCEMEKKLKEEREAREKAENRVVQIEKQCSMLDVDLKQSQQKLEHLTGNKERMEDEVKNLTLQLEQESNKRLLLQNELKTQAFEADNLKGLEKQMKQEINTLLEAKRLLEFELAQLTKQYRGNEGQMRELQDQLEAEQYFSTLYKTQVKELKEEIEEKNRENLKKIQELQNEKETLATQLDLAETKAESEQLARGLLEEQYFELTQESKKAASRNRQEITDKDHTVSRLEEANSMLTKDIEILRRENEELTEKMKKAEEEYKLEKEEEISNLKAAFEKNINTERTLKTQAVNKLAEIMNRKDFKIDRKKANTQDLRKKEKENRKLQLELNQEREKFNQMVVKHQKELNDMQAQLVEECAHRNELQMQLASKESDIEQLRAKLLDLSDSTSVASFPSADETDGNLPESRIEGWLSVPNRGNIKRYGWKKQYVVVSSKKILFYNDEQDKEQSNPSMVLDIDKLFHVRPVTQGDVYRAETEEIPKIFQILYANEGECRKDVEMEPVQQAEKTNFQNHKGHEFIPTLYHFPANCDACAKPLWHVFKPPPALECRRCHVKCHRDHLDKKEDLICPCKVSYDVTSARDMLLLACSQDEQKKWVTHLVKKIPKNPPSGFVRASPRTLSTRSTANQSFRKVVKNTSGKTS
Protocol: as §1

Fgr(h) = Fgr(h) (Homo sapiens, UniProt P09769)
Protocol: as §1

SAPK4(h) = target: T15, SAPK4(h) (Homo sapiens, UniProt O15264)
T15 construct: purchased Millipore (KinaseProfiler service)
Protocol: as §1

PKGIβ(h) = PKGIβ(h) (Homo sapiens, UniProt Q13976)
PKGIβ(h), sequence (Q13976 1-686 isoform Q13976-2): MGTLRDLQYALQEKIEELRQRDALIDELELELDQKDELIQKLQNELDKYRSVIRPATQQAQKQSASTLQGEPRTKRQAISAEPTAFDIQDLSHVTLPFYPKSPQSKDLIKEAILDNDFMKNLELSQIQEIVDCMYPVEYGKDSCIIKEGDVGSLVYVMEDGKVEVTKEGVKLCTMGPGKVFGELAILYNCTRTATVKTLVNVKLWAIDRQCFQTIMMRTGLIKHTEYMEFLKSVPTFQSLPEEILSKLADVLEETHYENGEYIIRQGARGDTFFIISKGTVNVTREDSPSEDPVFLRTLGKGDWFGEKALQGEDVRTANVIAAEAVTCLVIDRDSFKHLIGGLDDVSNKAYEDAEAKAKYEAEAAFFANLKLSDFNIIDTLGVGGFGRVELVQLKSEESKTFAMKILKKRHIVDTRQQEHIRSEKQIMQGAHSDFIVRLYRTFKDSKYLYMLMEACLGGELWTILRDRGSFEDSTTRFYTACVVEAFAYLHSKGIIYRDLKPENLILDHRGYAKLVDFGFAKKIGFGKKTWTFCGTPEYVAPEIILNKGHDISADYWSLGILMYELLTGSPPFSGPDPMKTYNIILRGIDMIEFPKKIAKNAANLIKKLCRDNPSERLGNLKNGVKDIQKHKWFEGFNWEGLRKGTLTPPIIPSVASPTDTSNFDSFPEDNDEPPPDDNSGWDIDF
Protocol: as §1

F1t3(h) = F1t3(h) (Homo sapiens, UniProt P36888)
Protocol: as §1

HIPK2(h) = HIPK2(h) (Homo sapiens, UniProt Q9H2X6)
Protocol: as §1

MRCKα(h) = target: T16, MRCKα(h) (Homo sapiens, UniProt Q5VT25)
T16 construct: purchased Millipore (KinaseProfiler service)
Protocol: as §1

Txk(h) = Txk(h) (Homo sapiens, UniProt P42681)
Txk(h), sequence (P42681 whole entry): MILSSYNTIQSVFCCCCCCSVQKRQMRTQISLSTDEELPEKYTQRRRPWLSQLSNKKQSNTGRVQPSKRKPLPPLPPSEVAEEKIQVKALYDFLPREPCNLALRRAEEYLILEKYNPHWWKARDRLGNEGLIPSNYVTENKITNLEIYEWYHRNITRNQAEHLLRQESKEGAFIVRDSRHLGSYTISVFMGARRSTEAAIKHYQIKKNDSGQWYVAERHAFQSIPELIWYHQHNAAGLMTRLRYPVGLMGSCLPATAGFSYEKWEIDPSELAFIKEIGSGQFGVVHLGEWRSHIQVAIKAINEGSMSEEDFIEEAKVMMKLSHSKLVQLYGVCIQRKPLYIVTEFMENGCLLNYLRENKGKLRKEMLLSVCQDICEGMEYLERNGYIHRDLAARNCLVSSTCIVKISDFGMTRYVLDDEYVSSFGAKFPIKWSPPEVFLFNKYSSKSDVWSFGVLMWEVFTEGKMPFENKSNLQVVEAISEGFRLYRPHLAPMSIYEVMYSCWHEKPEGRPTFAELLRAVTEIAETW
Protocol: as §1

PASK(h) = PASK(h) (Homo sapiens, UniProt Q96RG2)
Protocol: as §1

mTOR/FKBP12(h) = mTOR/FKBP12(h) (Homo sapiens, UniProt P42345)
Protocol: as §1

LKB1(h) = LKB1(h) (Homo sapiens, UniProt Q15831)
Protocol: as §1

PDGFRα(D842V)(h) = PDGFRα(D842V)(h) (Homo sapiens, UniProt P16234, D842V)
Protocol: as §1

Cc1cc2c(F)c(Oc3nc(Nc4cc(C5CC5)[nH]n4)cc(N4CCN(C)CC4)n3)cc(F)c2[nH]1 [NTW-3475]
Activity % (MKK4(m)): 100%
Activity % (CK1γ3(h)): 117%
Activity % (CK2α2(h)): 115%
Activity % (MEK1(h)): 63%
Activity % (Ret(V804M)(h)): 0%
Activity % (CHK2(h)): 95%
Activity % (EphA1(h)): 12%
Activity % (GCK(h)): 13%
Activity % (Fer(h)): 69%
Activity % (ZAP-70(h)): 110%
Activity % (cKit(D816V)(h)): 63%
Activity % (PKCβII(h)): 109%
Activity % (TAK1(h)): 65%
Activity % (Pim-3(h)): 99%
Activity % (ROCK-II(h)): 58%
Activity % (MSK1(h)): 104%
Activity % (SGK3(h)): 102%
Activity % (SAPK3(h)): 115%
Activity % (HIPK1(h)): 91%
Activity % (PKCγ(h)): 102%
Activity % (LOK(h)): 20%
Activity % (FAK(h)): 78%
Activity % (ACK1(h)): 4%
Activity % (BTK(R28H)(h)): 103%
Activity % (Fms(Y969C)(h)): 4%
Activity % (Tie2(Y897S)(h)): 3%
Activity % (Tec(h) activated): 52%
Activity % (ROCK-I(h)): 93%
Activity % (Fgr(h)): 2%
Activity % (SAPK4(h)): 91%
Activity % (PKGIβ(h)): 111%
Activity % (F1t3(h)): 1%
Activity % (HIPK2(h)): 101%
Activity % (MRCKα(h)): 102%
Activity % (Txk(h)): 20%
Activity % (PASK(h)): 91%
Activity % (mTOR/FKBP12(h)): 63%
Activity % (LKB1(h)): 98%
Activity % (PDGFRα(D842V)(h)): 17%
